Test results: US20230002334A1, “TRPM8 MODULATORS” (Givaudan SA, priority 2019, published 2023)

Tests used:
[1] = biological target: T1, hTRPM8 (Homo sapiens, UniProt Q7Z2W7); assay: Assay on TRPM8 modulators: calcium imaging (Fluo-4, Flexstation) in HEK293 cell line stably expressing hTRPM8; type: cell-based; conditions: HEK293 cells stably expressing hTRPM8, calcium influx, sigmoidal dose-response fit; read-out: EC50
T1 construct: expressed in transfected cells
Summary of the method: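 Calcium influx monitored by Fluo-4 (2.7 μM with […] probenecid, 1 h 37 °C loading) in HEK293 cells stably expressing hTRPM8, in HEPES buffer pH 7.4 with 2 mM CaCl2. Fluorescence read 15 s before and 105 s after adding serial compound dilutions. Maximal activation relative to solvent and 31.6 μM menthol; EC50 from sigmoidal fit.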

[2] = tested on: panelists (mouth, mucosa); assay: Sensory studies in aqueous solution (trained panel, swilling in the mouth); type: in vivo, human; conditions: 40 ppm in aqueous solution; for time of max cooling / Max. cooling: 20 mL swilled 60 seconds; for Max. cooling / Cooling after 1 h: averaged panel score on scale 0 to 10; for Cooling after 1 h: 1 h after swilling
Method: The compounds as listed below in Table 2 were dissolved at a concenteration of 1 wt-% in propylene glycol. These solutions were then dispensed in appropriate quantities into deionized water containing 0.5 wt-% Poloxamer 407 (which is a hydrophilic non-ionic surfactant, e.g., commercially available from SigmaAldrich) and 0.25 wt-% Cremaphor® RH40 (obtained from BASF) as solubilizer, to obtain the desired final concentration of 40 ppm (parts per milion) of the respective compound.
A trained group of panelists evaluated the aqueous solutions containing test compound by swilling 20 mL of the solution in the mouth for 60 seconds, followed by spitting, without rinsing the mouth afterwards for the duration of the evaluation. Panelists evaluated and recorded the cooling performance as well as other sensorial and organoleptic attributes at different timepoints over a period of two hours. Cooling performance was rated on a scale from 0 to 10 with 0 being no effect and 10 being freezing. Scores were averaged for all panelists and the cooling intensity qualified as “N” for “none” (score of 0), “L” for “low” (score above 0, up to 1), “M” for “medium” (score above 1, up to 4), “S” for “strong” (score above 4, up to 8) and “E” for “extreme” (score above 8), which are provided in Table 2. […] All tasted samples developed cooling sensation starting during swilling (almost immediately upon contact with the mucosa) and before expectorating.

[3] = tested on: panelists (mouth); assay: Sensory studies in model dentifrice (trained panel, tooth brushing); type: in vivo, human; conditions: 100 ppm in model unflavored dentifrice; for time of max cooling / Max. cooling: 1 g brushed 60 seconds; for Max. cooling / Cooling after 1 h: averaged panel score on scale 0 to 10; for Cooling after 1 h: 1 h after brushing
Method: The compounds listed in Table 3 were dissolved at a concenteration of 1 wt-% in propylene glycol. These solutions were then dispersed in appropriate quantities to obtain the desired final concentration of 100 ppm (parts per milion) of the test compound into a model, unflavored dentifrice, the formula of which is given below (ingredients obtained from the suppliers respectively indicated in parenthesis).
A trained group of panelists evaluated the dentifrice containing a compound of formula (I), by brushing their teeth with 1 g of the dentifrice using a toothbrush for 60 seconds, followed by spitting, without rinsing the mouth afterwards for the duration of the evaluation. Panelists evaluated and recorded the cooling performance as well as other sensorial and organoleptic attributes at different timepoints over a period of two hours. Cooling performance was rated on a scale from 0 to 10 with 0 being no effect and 10 being freezing. Scores were averaged for all panelists and the cooling intensity qualified as “N” for “none” (score of 0), “L” for “low” (score above 0, up to 1), “M” for “medium” (score above 1, up to 4), “S” for “strong” (score above 4, up to 8) and “E” for “extreme” (score above 8), which are summarized below in Table 3. […] All tasted samples developed cooling sensation starting during brushing, before expectorating.

T1 sequence (Q7Z2W7 whole entry): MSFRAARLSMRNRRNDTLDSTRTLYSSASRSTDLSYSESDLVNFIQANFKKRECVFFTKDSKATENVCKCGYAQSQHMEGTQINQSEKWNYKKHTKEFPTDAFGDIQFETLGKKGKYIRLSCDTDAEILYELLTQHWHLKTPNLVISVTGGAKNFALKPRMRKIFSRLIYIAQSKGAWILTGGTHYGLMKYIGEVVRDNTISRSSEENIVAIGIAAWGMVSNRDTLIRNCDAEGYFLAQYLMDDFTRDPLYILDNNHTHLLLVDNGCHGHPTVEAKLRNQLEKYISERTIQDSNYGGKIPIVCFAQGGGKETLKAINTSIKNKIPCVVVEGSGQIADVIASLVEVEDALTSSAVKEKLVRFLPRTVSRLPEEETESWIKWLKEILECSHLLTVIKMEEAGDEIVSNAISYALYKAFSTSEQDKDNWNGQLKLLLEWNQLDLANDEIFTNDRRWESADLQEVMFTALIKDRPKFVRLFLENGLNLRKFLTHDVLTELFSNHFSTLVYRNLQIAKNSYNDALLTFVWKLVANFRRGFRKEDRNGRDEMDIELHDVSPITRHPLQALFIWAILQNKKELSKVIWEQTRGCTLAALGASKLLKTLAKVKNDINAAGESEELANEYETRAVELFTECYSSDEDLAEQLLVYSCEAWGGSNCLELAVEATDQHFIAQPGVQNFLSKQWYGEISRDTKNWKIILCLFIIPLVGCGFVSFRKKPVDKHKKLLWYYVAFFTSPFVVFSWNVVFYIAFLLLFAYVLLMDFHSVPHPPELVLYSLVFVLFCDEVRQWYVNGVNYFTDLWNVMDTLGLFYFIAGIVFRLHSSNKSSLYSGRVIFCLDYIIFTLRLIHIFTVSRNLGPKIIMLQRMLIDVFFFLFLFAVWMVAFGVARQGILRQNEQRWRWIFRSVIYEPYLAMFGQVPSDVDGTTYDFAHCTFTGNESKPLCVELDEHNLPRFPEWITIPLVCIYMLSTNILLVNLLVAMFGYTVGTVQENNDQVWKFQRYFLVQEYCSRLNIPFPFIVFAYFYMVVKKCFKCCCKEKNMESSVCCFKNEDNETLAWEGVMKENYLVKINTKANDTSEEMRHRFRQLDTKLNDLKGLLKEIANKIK

Q: `Cc1ccccc1[C@@]1(C)C[C@@H]2[C@@H]([C@@H](C)C1)N(C)OC2(C)C` (racemic) [Compound 46, rac-(3aR,5R,7S,7aR)-1,3,3,5,7-pentamethyl-5-(o-tolyl)octahydrobenzo[c]isoxazole] was tested. Which EC50 [1] did it give?
A: The EC50 was under 50 nM.

Q: What about the “time of max cooling” value [2] of the same molecule?
A: Its value is 10 min.

Q: And the Max. cooling [2]?
A: Its Max. cooling is “S (“S” for “strong” (score above 4, up to 8))”.

Q: What about the “Cooling after 1 h” value [2] of the same molecule?
A: Its value is “M (“M” for “medium” (score above 1, up to 4))”.

Q: What about the “time of max cooling” value [3] of the same molecule?
A: The value was 20 min.

Q: And the Max. cooling [3]?
A: The Max. cooling was “S (“S” for “strong” (score above 4, up to 8))”.

Q: And the “Cooling after 1 h” value [3]?
A: Its value is “M (“M” for “medium” (score above 1, up to 4))”.

Q: Which EC50 [1] does the source give for `C[C@H]1C[C@@](C)(c2ccccc2)C[C@@H]2[C@@H]1N(C)OC2(C)C` (racemic) [Compound 48, rac-(3aR,5R,7S,7aR)-1,3,3,5,7-pentamethyl-5-phenyloctahydrobenzo[c]isoxazole] here?
A: Its EC50 is 50 to 300 nM.

Q: What about the “time of max cooling” value [2] of the same molecule?
A: The value was 10 min.

Q: And the Max. cooling [2]?
A: The Max. cooling was “S (“S” for “strong” (score above 4, up to 8))”.

Q: What about the “Cooling after 1 h” value [2] of the same molecule?
A: The value was “M (“M” for “medium” (score above 1, up to 4))”.

Q: What about the “time of max cooling” value [3] of the same molecule?
A: The value was 5 min.

Q: What about the Max. cooling [3] of the same molecule?
A: Its Max. cooling is “M (“M” for “medium” (score above 1, up to 4))”.

Q: And the “Cooling after 1 h” value [3]?
A: The value was “L (“L” for “low” (score above 0, up to 1))”.

Q: With `C[C@H]1C[C@@](C)(c2ccc(F)cc2)C[C@@H]2[C@@H]1N(C)OC2(C)C` (racemic) [Compound 102, rac-(3aR,5R,7S,7aR)-5-(4-fluorophenyl)-1,3,3,5,7-pentamethyloctahydrobenzo[c]isoxazole] as the molecule, how does the EC50 [1] read?
A: The EC50 was under 50 nM.

Q: What about the “time of max cooling” value [2] of the same molecule?
A: Its value is 10 min.

Q: And the Max. cooling [2]?
A: The Max. cooling was “S (“S” for “strong” (score above 4, up to 8))”.

Q: What about the “Cooling after 1 h” value [2] of the same molecule?
A: The value was “M (“M” for “medium” (score above 1, up to 4))”.

Q: And the “time of max cooling” value [3]?
A: Its value is 10 min.

Q: What about the Max. cooling [3] of the same molecule?
A: Its Max. cooling is “M (“M” for “medium” (score above 1, up to 4))”.

Q: And the “Cooling after 1 h” value [3]?
A: The value was “M (“M” for “medium” (score above 1, up to 4))”.

Q: `Cc1ccc(C#N)cc1[C@@]1(C)C[C@@H]2[C@@H]([C@@H](C)C1)N(C)OC2(C)C` (stereo in doubt) [Compound 135, rac-4-methyl-3-((3aR,5R,7S,7aR)-1,3,3,5,7-pentamethyloctahydrobenzo[c]isoxazol-5-yl)benzonitrile] was tested. Which EC50 [1] did it give?
A: Its EC50 is under 50 nM.

Q: What about the “time of max cooling” value [2] of the same molecule?
A: The value was 10 min.

Q: And the Max. cooling [2]?
A: Its Max. cooling is “E (“E” for “extreme” (score above 8))”.

Q: What about the “Cooling after 1 h” value [2] of the same molecule?
A: Its value is “M (“M” for “medium” (score above 1, up to 4))”.

Q: And the “time of max cooling” value [3]?
A: Its value is 5 min.

Q: And the Max. cooling [3]?
A: Its Max. cooling is “S (“S” for “strong” (score above 4, up to 8))”.

Q: What about the “Cooling after 1 h” value [3] of the same molecule?
A: The value was “M (“M” for “medium” (score above 1, up to 4))”.
